From patent publication US20070009566A1, “Method and apparatus for treating bacterial infections in devices” (priority 2005, published 2007)
≈ marks a conversion by molar mass, not a printed value. Like-named read-outs stand apart in the source and are kept apart here. Where no end group is shown, it is not given here.

Tests used:
[1] = system: S. aureus strain Smith diffuse (SD) biofilm; experiment: Adherent biofilm formation (crystal violet, OD 570 nm); format: cell-based; details: with addition of RIP into each well; data not shown
Description: (§1) Organisms: The inventors chose the S. aureus strain Smith diffuse (SD).
Adherent biofilm formation for susceptibility testing: To develop a biofilm, 50 μL of Triptic Soy broth (“TSB”) containing 10^6 CFU/mL of bacteria was added under aseptic conditions to each well of a tissue culture-treated polystyrene 96-well plate containing 150 μL of TSB-2% glucose. […] To evaluate the formation of adherent biofilm, the remaining attached bacteria were fixed with 0.2 mL of 99% methanol per well, and after 15 min, plates were emptied and left to dry. […] Stepanovic et al., J Microbiol Methods 40:175-179 (2000); and Christensen et al., J Clin Microbiol 22:996-1006 (1985). The plates were air dried. The dye bound to the adherent cells was solubilized with 0.2 mL of 33% (v/v) glacial acetic acid per well.

[2] = system: S. aureus strain Smith diffuse; experiment: Rat central venous catheter (CVC)-associated infection model, lock technique; details: day seven; for Quantitative blood culture / Quantitative catheters/venous tissues culture: mean ± S.D.; for Antimicrobial activity in quantitative peripheral blood cultures (in words): at concentration of MBC for adherent cells, compared with untreated control
[3] = system: S. aureus strain Smith diffuse (SD), planktonic organisms; experiment: Susceptibility testing by classical method (microbroth dilution, MIC/MBC, planktonic organisms); format: cell-based; details: 10 μg of RIP pre-treatment (in 10 μL MH broth/well), 30 minutes
From the text: as §1
National Committee for Clinical Laboratory Standards, Fifth Edition, Approved Standard M7-A5, Wayne, Pa. (2001).

[4] = system: S. aureus strain Smith diffuse (SD), adherent organisms
[5] = system: S. aureus strain Smith diffuse (SD), adherent organisms; experiment: microbe, parasite or virus in culture; details: Staphylococcus aureus
[6] = 10 μg of RIP pre-treatment (in 10 μL MH broth/well), 30 minutes
[7] = read-out: MBC, adherent organisms, 10 μg of RIP pre-treatment (in 10 μL MH broth/well), 30 minutes
[8] = read-out: MBC, adherent organisms, without RIP pre-treatment
[9] = read-out: MIC, adherent organisms, 10 μg of RIP pre-treatment (in 10 μL MH broth/well), 30 minutes
[10] = read-out: MIC, adherent organisms, without RIP pre-treatment
[11] = antibiotic lock 1,024 μg/ml, 1 hour dwell
[12] = antibiotic lock 8.00 μg/ml (MBC for adherent cells), 1 hour dwell

| Compound | Slime production (photometrical method) [1] | Quantitative blood culture ([2]; RIP-impregnated CVC alone) | Quantitative catheters/venous tissues culture ([2]; RIP-impregnated CVC alone) | MBC, planktonic organisms [3] [µg/mL] | MIC, planktonic organisms [3] [µg/mL] | MIC, adherent organisms [4, 6] [µg/mL] | MIC, adherent organisms ([4]; without RIP pre-treatment) [µg/mL] | MBC [5, 7] [µg/mL] | MBC [5, 8] [µg/mL] | MIC [5, 9] [µg/mL] | MIC [5, 10] [µg/mL] | Quantitative blood culture [2, 11] | Quantitative catheters/venous tissues culture [2, 11] | Antimicrobial activity in quantitative peripheral blood cultures (in words) [2] | Quantitative blood culture [2, 12] | Quantitative catheters/venous tissues culture [2, 12] |
| --- | --- | --- | --- | --- | --- | --- | --- | --- | --- | --- | --- | --- | --- | --- | --- | --- |
| YSPWTNF-NH2 [RIP, YSPWTNF-NH2] | much lower | 3.4 × 10^1 ± 0.8 × 10^1b CFU/ml | 1.4 × 10^3 ± 0.3 × 10^3b CFU/ml | – | – | – | – | – | – | – | – | – | – | – | – | – |
| CN[C@H](CC(C)C)C(=O)N[C@H]1C(=O)N[C@@H](CC(N)=O)C(=O)N[C@H]2C(=O)N[C@H]3C(=O)N[C@H](C(=O)N[C@H](C(=O)O)c4cc(O)cc(O)c4-c4cc3ccc4O)[C@H](O)c3ccc(c(Cl)c3)Oc3cc2cc(c3O[C@@H]2O[C@H](CO)[C@@H](O)[C@H](O)[C@H]2O[C@H]2C[C@](C)(N)[C@H](O)[C@H](C)O2)Oc2ccc(cc2Cl)[C@H]1O [Vancomycin] | – | – | – | 2.00 (≈ 1.38 µM) | 1.00 (≈ 0.69 µM) | 1.00 (≈ 0.69 µM) | 2.00 (≈ 1.38 µM) | 2 (≈ 1.38 µM) | 16 (≈ 11 µM) | 1 (≈ 0.69 µM) | 2 (≈ 1.38 µM) | 5.3 × 10^1 ± 1.1 × 10^1bc CFU/ml | 5.4 × 10^5 ± 1.6 × 10^5bc CFU/ml | weak antimicrobial activity | – | – |
| O=C(O)c1cn(C2CC2)c2cc(N3CCNCC3)c(F)cc2c1=O [Ciprofloxacin, ciprofloxacin] | – | – | – | – | – | – | – | – | – | – | – | 6.6 × 10^1 ± 1.4 × 10^1bc CFU/ml | 7.4 × 10^5 ± 2.1 × 10^5bc CFU/ml | weak antimicrobial activity | – | – |
| C[C@@H](O)[C@H]1C(=O)N2C(C(=O)O)=C(SCCN=CN)C[C@H]12 [Imipenem, imipenem] | – | – | – | 1.00 (≈ 3.34 µM) | 0.50 (≈ 1.67 µM) | 0.50 (≈ 1.67 µM) | 1.00 (≈ 3.34 µM) | 2 (≈ 6.68 µM) | 8 (≈ 26.7 µM) | 0.5 (≈ 1.67 µM) | 1 (≈ 3.34 µM) | 5.7 × 10^1 ± 1.2 × 10^1bc CFU/ml | 6.0 × 10^5 ± 1.9 × 10^5bc CFU/ml | – | 5.8 × 10^3 ± 1.2 × 10^3 CFU/ml | 6.9 × 10^6 ± 2.1 × 10^6 CFU/ml |
